The results in this text go back to patent publication US20140030808A1, “Method for Cellular RNA Expression” (BIONTECH AG, priority 2010, published 2014).

SMILES strings stand for the structures.

Test [1] deals with murine embryonic fibroblasts (MEFs). The test can be described thus: Luciferase reporter gene assay in murine fibroblasts electroporated with IVT RNA. The settings on record: 0.5 μM to 2 μM, mouse fibroblasts, after electroporation. The test is classed as cell-based. The method, then:
(A-C) Primary human foreskin fibroblasts from different donors and suppliers (panel A: BJ fibroblasts; panel B CCD1079Sk; panel C: HFF) and (D) murine embryonic fibroblasts (MEFs) were electroporated with 0.5 μg IVT RNA encoding for firefly luciferase and 1.25 μg IVT RNA encoding for enhanced GFP (eGFP). The cells were plated in duplicates into 96-well-plates at a density of 30000 cells/well. The cells were either left untreated or incubated with increasing amounts of C13H8N4OS (PKR-inhibitor) ranging from 0.5 μM to 2 μM as indicated in the panel legends. Luciferase activity was measured at the indicated time points. Mean values of the duplicates are given.
Transfer of IVT-RNA into cells was performed by electroporation (EP). To this end, 1-10×10^7 cells per EP were harvested, washed sequentially with PBS supplemented with 2 mM EDTA and X-VIVO 15 medium (Lonza), resuspended in 125 μl X-VIVO 15 medium and transferred to a 2-mm gap sterile electroporation cuvette (Bio-RAD, Hercules, Calif., USA). […]
For luciferase assays, cells electroporated with in vitro transcribed RNA coding for luciferase were plated in 96-well white flat-bottom microplates (Nunc, Langenselbold, Germany) and incubated at 37° C. […] Bioluminescence flux was measured with the Infinite M200 microplate luminescence reader (Tecan, Crailsheim, Germany) with 1 s integration time. […]
(In general: Reporter assays use an easily measured gene product as a stand-in for the process of interest.)

Test [2] relates to Primary human foreskin fibroblasts (BJ, CCD1079Sk). As to the kind of experiment: GFP expression by flow cytometry (MFI) in fibroblasts electroporated with IVT RNA. The test is classed as cell-based. On the procedure:
(AB) Primary human foreskin fibroblasts from different donors and suppliers (panel A: BJ fibroblasts; panel B CCD1079Sk) and (C) MEFs were electroporated with 0.5 μg IVT RNA encoding for firefly luciferase and 1.25 μg IVT RNA encoding for enhanced GFP (eGFP). The cells were plated into […] at a density of 250000 cells/well. The cells were either left untreated or incubated with increasing amounts of C13H8N4OS (PKR-inhibitor) ranging from 0.5 μM to 2 μM as indicated in the panel legends. GFP expression was measured by flow cytometry at the indicated time points. The mean fluorescence intensity (MFI) of the transfected GFP-positive cell fractions is shown.
Transfer of IVT-RNA into cells was performed by electroporation (EP). […]
(§1) For quantification of d2eGFP and eGFP protein, cells were washed in PBS, fixed using PBS supplemented with 2% formaldehyde and analyzed by flow cytometry on a FACS Canto II flow cytometer (BD Biosciences, Heidelberg, Germany). Gating was performed on living cells and mean fluorescence intensity (MFI) of GFP expressing cell populations was quantified using FlowJo software (Tree Star, Ashland, Oreg., USA). […] Gating was performed on living CD4+ and CD8+ T-cells and GFP expression and MFI of both T-cell subpopulations was determined by flow cytometry. […]
Background: A flow cytometer gives signals particle by particle.

The test system of test [3] is Primary human umbilical vein endothelial cells (HUVECs). The class given is cell-based.
Test [4] concerns immature dendritic cells (iDCs). As to the kind of experiment: GFP expression by flow cytometry in iDCs electroporated with IVT RNA. The class given is cell-based, human. The conditions noted are these: 0.5 μM to 2 μM. On the procedure:
Human primary CD4 and CD 8 positive T-cells, as well as immature dendritic cells (iDCs) were isolated and electroporated with 5 μg IVT RNA encoding for destabilized GFP. iDCs were coelectroporated with 1 μg IVT RNA encoding for firefly luciferase. The cells were either left untreated or incubated with increasing amounts of C13H8N4OS (PKR-inhibitor) ranging from 0.5 μM to 2 μM as indicated in the panel legends. (A) T-cells and (B) iDCs were harvested at the indicated time points and GFP expression was assessed by flow cytometry. The mean fluorescence intensity (MFI) of the transfected, GFP-positive cell fractions is shown. (C) For luciferase assays, iDCs were plated in duplicates into 96-well-plates at a density of 10000 cells/well. Luciferase activity was measured at the indicated time points. Mean values of the duplicates are given.
as §1

Consider `O=C1Nc2ccc3ncsc3c2/C1=C/c1c[nH]cn1` [C13H8N4OS, 6,8-dihydro-8-(1H-imidazol-5-ylmethylene)-7H-pyrrolo[2,3-g]benzothiazol-7-one], for which the luciferase expression entry in test [1] is on record as “dose dependent increase”; in test [3] (0.5 μM to 2 μM, HUVECs), “enhanced in HUVECs in a dose dependent manner”. Also, the “GFP expression (MFI)” value in test [2] (0.5 μM to 2 μM, human fibroblasts) was “dose dependent increase”; in test [4], “Neither in T-cells nor in iDCs PKR inhibition led to an increased GFP expression”. In test [2] (highest concentration used (2 μM)), the “stabilization of GFP expression” value is given as “high level of stabilization”. Besides, in test [3] (HUVECs cotransfected with E3 and K3, increasing concentrations of C13H8N4OS), the “luciferase expression on additional application of inhibitor” value is given as “additively enhanced”. In addition, in test [3] (HUVECs, PKR inhibition), the “duration of luciferase expression compared with fibroblasts” value is on record as “not as long lasting as observed in fibroblasts”.
